According to patent US10844013B2, “Phenyl amino piperidine mTORC inhibitors and uses thereof” (Navitor Pharmaceuticals, Inc., priority 2016, dated 2020):

Tests used:
[1] = system: pS6K1 (p-p70 S6 Kinase (Thr389)) in MCF-7 cells; assay: AlphaLISA Ultra pS6K1 assay; format: cell-based; conditions: Homo sapiens, MCF7, 2 h, 2 hours compound incubation
Procedure: Example 155: AlphaLISA Ultra pS6K1 assay
(§1) Assay Protocol: • 1. Seed MCF-7 cells in Corning 3701 plate and incubate for 20˜24 hour. 12,000˜16,000 cells will be seeded in 36 μL medium per well. • 2. Change the culture medium with fresh medium and incubate for another 2 hours. • 3. Add 12 μL (4×) compounds into the cell plate by HAMILTON. Final DMSO concentration is 0.5%. Incubate for 2 hours. • 4. Aspirate 38 μL by HAMILTON, 10 μL rest per well. • 5. Add 10 μL 2× lysis buffer using HAMILTON; total volume in wells is 20 μL. Allow cells to shake for 30 min. Cover plate by plastic foil and store plate at −80° C. up to analysis. • 6. Thaw cell lysate at RT and transfer 10 ul lysate to assay plate (Optiplate-384). • 7. Add 5 ul acceptor beads into assay plate and incubation for 2 hours • 8. Add 5 ul donor beads and incubation for 2 hours • 9. Count the plate by EnSpire Multimode Plate Reader

[2] = system: pAKT (p-Akt 1/2/3 (Ser473)) in MCF-7 cells; assay: AlphaLISA Ultra pAKT assay; format: cell-based; conditions: Homo sapiens, MCF7, 2 hours compound incubation
Procedure: Example 156: AlphaLISA Ultra pAKT Assay
as §1, with “1.” for “1. Seed”, “for 20-24” for “for 20˜24”, “hour. 16,000-20,000” for “hour. 12,000˜16,000”, “38 j L” for “38 μL”

SMILES | IC50 [1] [µM] | IC50 [2] [µM]
Cc1cc(C)c(C(=O)N2CCN(c3ccccc3S(N)(=O)=O)CC2)nc1NC1CCN(c2ccccc2C#N)CC1 [I-66, 2-(4-(6-(1-(2-Cyanophenyl)piperidin-4-ylamino)-3,5-dimethylpicolinoyl)piperazin-1-yl)benzenesulfonamide] | 0.01 to 1 | > 10
Cc1cc(C)c(C(=O)N2CCN(c3ccccc3S(N)(=O)=O)CC2)cc1NC1CCN(c2ccccc2C#N)CC1 [I-67] | 0.01 to 1 | > 10
Cc1cc(C)c(N(C)C2CCN(c3ccccc3C#N)CC2)cc1C(=O)N1CCN(c2ccccc2C#N)CC1 [I-68, 2-[4-({5-[4-(2-cyanophenyl)piperazine-1-carbonyl]-2,4-dimethylphenyl}(methyl)amino)piperidin-1-yl]benzonitrile] | 0.01 to 1 | > 10
Cc1cc(C)c(C(=O)N2CCN(c3cc(F)c(F)cc3C#N)C[C@@H]2C)cc1NC1CCN(c2ccccc2C#N)CC1 [I-69, 2-[(3S)-4-(5-{[1-(2-Cyanophenyl)piperidin-4-yl]amino}-2,4-dimethylbenzoyl)-3-methylpiperazin-1-yl]-4,5-difluorobenzonitrile] | 0.01 to 1 | > 10
Cc1cc(C)c(C(=O)N2CCN(c3cccnn3)CC2)cc1NC1CCN(c2ccccc2C#N)CC1 [I-70, 2-[4-({2,4-Dimethyl-5-[4-(pyridazin-3-yl)piperazine-1-carbonyl]phenyl}amino)piperidin-1-yl]benzonitrile] | 3 to 5 | > 10
Cc1cc(C)c(C(=O)N2CCN(c3ccccc3C#N)CC2)cc1NC1CCN(c2ccccc2C#N)CC1 [I-71, 2-[4-({5-[4-(2-Cyanophenyl)piperazine-1-carbonyl]-2,4-dimethylphenyl}amino)piperidin-1-yl]benzonitrile] | 0.01 to 1 | > 10
Cc1cc(C)c(C(=O)N2CCN(c3ccc(F)cn3)C(=O)C2)cc1NC1CCN(c2ccccc2C#N)CC1 [I-72, 2-[4-({5-[4-(5-Fluoropyridin-2-yl)-3-oxopiperazine-1-carbonyl]-2,4-dimethylphenyl}amino)piperidin-1-yl]benzonitrile] | 3 to 5 | > 10
Cc1cc(C)c(C(=O)N2CCN(c3ccccc3)C(CO)C2)cc1NC1CCN(c2ccccc2)C1 (centres unmarked) [I-73, (4-{2,4-Dimethyl-5-[(1-phenylpyrrolidin-3-yl)amino]benzoyl}-1-phenylpiperazin-2-yl)methanol] | 3 to 5 | > 10
Cc1cc(C)c(C(=O)N2CCN(c3ccccc3F)C(CO)C2)cc1NC1CCN(c2ccccc2C#N)CC1 (centres unmarked) [I-74, 2-[4-({5-[4-(2-Fluorophenyl)-3-(hydroxymethyl)piperazine-1-carbonyl]-2,4-dimethylphenyl}amino)piperidin-1-yl]benzonitrile] | 0.01 to 1 | > 10
Cc1cc(C)c(C(=O)N2CCN(c3ccc(F)cc3)C(CO)C2)cc1NC1CCN(c2ccccc2C#N)CC1 (centres unmarked) [I-76, 2-[4-({5-[4-(4-fluorophenyl)-3-(hydroxymethyl)piperazine-1-carbonyl]-2,4-dimethylphenyl}amino)piperidin-1-yl]benzonitrile] | 0.01 to 1 | > 10
Cc1cc(C)c(C(=O)N2CCN(c3ccccc3C#N)CC2)cc1NC1CCCN(c2ccc(C#N)cc2)CC1 (centres unmarked) [I-80, 2-[4-(5-{[1-(4-cyanophenyl)azepan-4-yl]amino}-2,4-dimethylbenzoyl)piperazin-1-yl]benzonitrile] | 1 to 3 | > 10
Cc1cc(C)c(C(=O)N2CCN(c3ccccc3C#N)CC2)cc1NC1CCCN(c2cccc(C#N)c2)CC1 (centres unmarked) [I-81, 2-[4-(5-{[1-(3-cyanophenyl)azepan-4-yl]amino}-2,4-dimethylbenzoyl)piperazin-1-yl]benzonitrile] | > 10 | > 10
Cc1cc(C#N)c(NC2CCN(c3ccccc3C#N)CC2)cc1C(=O)N1CCN(c2ccccc2S(N)(=O)=O)CC1 [I-86, 2-(4-(4-Cyano-5-(1-(2-cyanophenyl)piperidin-4-ylamino)-2-methylbenzoyl)piperazin-1-yl)benzenesulfonamide] | > 10 | > 10
Cc1ccc(NC2CCN(c3ccccc3C#N)CC2)c(C)c1C(=O)N1CCN(c2cccc(F)c2S(N)(=O)=O)CC1 [I-87, 2-(4-(3-(1-(2-cyanophenyl)piperidin-4-ylamino)-2,6-dimethylbenzoyl)piperazin-1-yl)-6-fluorobenzenesulfonamide] | 1 to 3 | > 10
Cc1cc(F)c(NC2CCN(c3ccccc3C#N)CC2)cc1C(=O)N1CCN(c2ccccc2S(N)(=O)=O)CC1 [I-90, 2-(4-(5-(1-(2-cyanophenyl)piperidin-4-ylamino)-4-fluoro-2-methylbenzoyl)piperazin-1-y)benzenesulfonamide] | 3 to 5 | > 10
Cc1cc(C)c(C(=O)N2CCN(c3cccc(F)c3S(N)(=O)=O)CC2)cc1NC1CCN(c2c(F)cccc2C#N)CC1 [I-92, 2-(4-(5-(1-(2-Cyano-6-fluorophenyl)piperidin-4-ylamino)-2,4-dimethylbenzoyl)piperazin-1-yl)-6-fluorobenzenesulfonamide] | 1 to 3 | > 10
Cc1cc(C)c(C(=O)N2CCN(c3ncccc3[S@](C)(=N)=O)CC2)cc1NC1CCN(c2ccccc2C#N)CC1 [I-94, (R)-2-(4-(2,4-Dimethyl-5-(4-(3-(S-methylsulfonimidoyl)pyridin-2-yl)piperazine-1-carbonyl)phenylamino)piperidin-1-yl)benzonitrile] | 1 to 3 | > 10
Cc1cc(C)c(C(=O)N2CCN(C(C)C)[C@H](CO)C2)cc1NC1CCN(c2ccccc2C#N)CC1 [I-95, (S)-2-(4-(5-(3-(Hydroxymethyl)-4-isopropylpiperazine-1-carbonyl)-2,4-dimethylphenylamino)piperidin-1-yl)benzonitrile] | > 10 | > 10
Cc1cc(C)c(C(=O)N2CCN(CC(F)(F)F)[C@@H](CO)C2)cc1NC1CCN(c2ccccc2C#N)CC1 [I-96, (R)-2-(4-(5-(3-(Hydroxymethyl)-4-(2,2,2-trifluoroethyl)piperazine-1-carbonyl)-2,4-dimethylphenylamino)piperidin-1-yl)benzonitrile] | 3 to 5 | > 10
Cc1cc(C)c(C(=O)NC2CCN(c3ccccc3C#N)CC2)cc1NC1CCN(c2ccccc2C#N)CC1 [I-97, N-(1-(2-Cyanophenyl)piperidin-4-yl)-5-(1-(2-cyanophenyl)piperidin-4-ylamino)-2,4-dimethylbenzamide] | > 10 | > 10
Cc1cc(C)c(C(=O)N2CCN(CC(F)(F)F)[C@H](CO)C2)cc1NC1CCN(c2ccccc2C#N)CC1 [I-98, (S)-2-(4-(5-(3-(Hydroxymethyl)-4-(2,2,2-trifluoroethyl)piperazine-1-carbonyl)-2,4-dimethylphenylamino)piperidin-1-yl)benzonitrile] | 5 to 10 | > 10
Cc1cc(C)c(C(=O)N2CCN(c3cc(F)ccn3)[C@@H](CO)C2)cc1NC1CCN(c2ccccc2C#N)CC1 [I-99, (R)-2-(4-(5-(4-(4-Fluoropyridin-2-yl)-3-(hydroxymethyl)piperazine-1-carbonyl)-2,4-dimethylphenylamino)piperidin-1-yl)benzonitrile] | 1 to 3 | > 10
